Source: the supplement of paper PMC10307832

What was measured:
Experiment in all cases: relative viability (nuclei count vs DMSO), 5 days (fraction); higher = more cells survive
[1] = compound: COC1=CC=C(C=C1)CN2C=CC3=C2C=C(C=C3)C(=O)NO + N=C(N)NC(=N)NCCc1ccccc1 [Phenformin] (partner 250 µM)
Summary of the method: (§1)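 Relative viability was taken as the ratio of nuclei in treated wells to nuclei in vehicle wells. Lung cancer cell lines in 1536-well plates received compounds by pin tool one day after seeding, either one drug alone or a fixed anchor-drug dose plus five library-drug doses (not always all listed) in √10 steps. Nuclei were counted on 4× images after 5 days of treatment, and values are medians of duplicate plates.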

Veliparib + Lapatinib = compound: C[C@]1(c2nc3c(C(N)=O)cccc3[nH]2)CCCN1 [Veliparib] + CS(=O)(=O)CCNCc1ccc(-c2ccc3ncnc(Nc4ccc(OCc5cccc(F)c5)c(Cl)c4)c3c2)o1 [Lapatinib] (partner 2 µM)
Summary of the method: as §1

[2] = compound: COC1=CC=C(C=C1)CN2C=CC3=C2C=C(C=C3)C(=O)NO + O=C(CCCCCCC(=O)Nc1ccccc1)NO [Vorinostat] (partner 1 µM)
Summary of the method: as §1

Veliparib + Vorinostat = compound: C[C@]1(c2nc3c(C(N)=O)cccc3[nH]2)CCCN1 [Veliparib] + O=C(CCCCCCC(=O)Nc1ccccc1)NO [Vorinostat] (partner 1 µM)
Summary of the method: as §1

Row | Cell Line | relative viability ([1]; first compound 0.08 µM) | relative viability ([1]; first compound 0.253 µM) | relative viability ([1]; first compound 0.8 µM) | relative viability ([1]; first compound 2.53 µM) | relative viability ([1]; first compound 8 µM) | relative viability (Veliparib + Lapatinib; first compound 0.02 µM) | relative viability (Veliparib + Lapatinib; first compound 0.06325 µM) | relative viability (Veliparib + Lapatinib; first compound 0.2 µM) | relative viability (Veliparib + Lapatinib; first compound 0.6325 µM) | relative viability (Veliparib + Lapatinib; first compound 2 µM) | relative viability ([2]; first compound 0.08 µM) | relative viability ([2]; first compound 0.253 µM) | relative viability ([2]; first compound 0.8 µM) | relative viability ([2]; first compound 2.53 µM) | relative viability ([2]; first compound 8 µM) | relative viability (Veliparib + Vorinostat; first compound 0.02 µM) | relative viability (Veliparib + Vorinostat; first compound 0.06325 µM) | relative viability (Veliparib + Vorinostat; first compound 0.2 µM) | relative viability (Veliparib + Vorinostat; first compound 0.6325 µM) | relative viability (Veliparib + Vorinostat; first compound 2 µM)
1 | HCC-827 | 0.427 | 0.382 | 0.386 | 0.417 | 0.394 | 0.199 | 0.191 | 0.182 | 0.177 | 0.191 | 0.592 | 0.897 | 0.799 | 0.799 | 0.788 | 0.764 | 0.834 | 0.793 | 0.671 | 0.746
2 | NCI-H1734 | – | 0.413 | 0.386 | 0.392 | 0.383 | 1.16 | 0.982 | 0.933 | 0.981 | 1.12 | – | 0.882 | 0.779 | 0.731 | 0.658 | – | 0.772 | 0.796 | 0.785 | 0.788
3 | NCI-H2087 | 0.396 | 0.448 | 0.442 | 0.404 | 0.374 | 0.548 | 1.02 | 0.913 | 0.854 | 1.32 | 0.276 | 0.649 | 1.26 | 0.809 | 0.663 | 0.504 | 0.747 | 0.875 | 0.645 | 0.726
4 | LCLC-103H | 0.339 | 0.339 | 0.398 | 0.347 | 0.287 | – | – | – | – | – | 0.647 | 0.832 | 0.868 | 0.748 | 0.613 | 0.846 | 0.726 | 0.819 | 0.749 | 0.77
5 | NCI-H1299 | – | – | – | – | – | 0.972 | 0.944 | 0.951 | 0.956 | 0.978 | – | – | – | – | – | – | – | – | – | –
6 | RERF-LC-KJ | 0.362 | 0.412 | 0.484 | 0.408 | 0.347 | 0.839 | 0.82 | 0.853 | 0.813 | 0.854 | 0.624 | 0.672 | 0.66 | 0.758 | 0.632 | 0.51 | 0.61 | 0.679 | 0.665 | 0.64
7 | PC-3 [JPC-3] | 0.5 | 0.464 | 0.475 | 0.495 | 0.497 | 0.422 | 0.397 | 0.454 | 0.476 | 0.477 | 0.786 | – | 0.668 | 0.756 | 0.587 | 0.68 | – | 1.02 | 1.03 | 0.922
8 | EKVX | 0.192 | 0.239 | 0.264 | 0.225 | 0.219 | 0.19 | 0.203 | 0.217 | 0.201 | 0.231 | 0.646 | 0.843 | 0.803 | 0.897 | 0.672 | – | 0.745 | 0.789 | 0.626 | 0.66
9 | NCI-H520 | – | 0.618 | 0.645 | 0.703 | 0.503 | 0.986 | 0.859 | 0.912 | 0.733 | 0.858 | 0.601 | 0.775 | 0.682 | 0.664 | 0.712 | 0.769 | 0.62 | 0.612 | 0.727 | 0.773
10 | NCI-H1355 | – | 0.459 | 0.52 | 0.482 | 0.426 | – | 0.882 | 0.999 | 0.939 | 0.968 | 0.223 | 0.695 | 0.65 | 0.625 | 0.589 | 0.44 | 0.528 | 0.638 | 0.626 | 0.596
11 | NCI-H2228 | – | 0.381 | 0.3 | 0.305 | 0.24 | 0.968 | 0.889 | 1.11 | 0.96 | 1.06 | 0.496 | 0.869 | 0.639 | 0.431 | 0.826 | 0.585 | 0.734 | 0.585 | 0.455 | 0.469
12 | NCI-H441 | 0.914 | 0.89 | 0.907 | 0.863 | 0.653 | – | – | – | – | – | 0.74 | 0.888 | 0.902 | 0.844 | 0.637 | 0.75 | 0.552 | 0.63 | 0.695 | 0.83
13 | EBC-1 | – | – | – | – | – | 0.205 | 0.21 | 0.208 | 0.201 | 0.244 | – | – | – | – | – | – | – | – | – | –
14 | ChaGo-K-1 | – | 0.539 | 0.484 | 0.438 | 0.374 | – | – | – | – | – | – | 0.837 | 0.772 | 0.706 | 0.558 | 0.555 | 0.735 | 0.662 | 0.65 | 0.74
15 | NCI-H2342 | 0.588 | 0.511 | 0.48 | 0.453 | 0.409 | – | – | – | – | – | 0.591 | 0.738 | 0.694 | 0.701 | 0.788 | 0.787 | 0.718 | 0.732 | 0.714 | 0.703
16 | NCI-H1703 | – | – | – | – | – | 1.11 | 0.922 | 1.35 | 0.982 | 1.2 | – | – | – | – | – | – | – | – | – | –
17 | NCI-H522 | – | 0.591 | 0.614 | 0.654 | 0.651 | – | – | – | – | – | – | 0.982 | 1.03 | 0.909 | 0.845 | 0.832 | 0.825 | 0.736 | 0.84 | 0.979
18 | NCI-H1563 | 0.622 | 0.676 | 0.671 | 0.664 | 0.534 | 0.695 | 1.02 | 0.976 | 0.978 | 0.987 | – | – | – | – | – | – | – | – | – | –
19 | NCI-H1792 | 0.455 | 0.358 | 0.29 | 0.19 | 0.129 | 0.922 | 0.719 | 0.962 | 0.983 | 0.832 | – | – | – | – | – | – | – | – | – | –
20 | NCI-H1648 | – | – | – | – | – | – | – | – | – | – | 0.373 | 0.515 | 0.337 | 0.528 | 0.406 | 0.481 | – | – | 0.572 | 0.424
21 | SW 900 | 0.643 | 0.652 | 0.593 | 0.512 | 0.339 | – | – | – | – | – | 0.477 | 0.334 | 0.441 | 0.733 | 0.358 | – | 0.452 | 0.472 | 0.606 | 0.463
22 | IA-LM | – | – | – | – | – | 0.85 | 0.561 | 0.771 | 0.846 | 1.04 | 0.801 | – | 0.971 | 1.05 | 0.961 | 0.925 | 0.906 | 0.888 | 0.789 | 0.969
23 | A549 | – | 0.159 | 0.173 | 0.188 | 0.0674 | 1.12 | 0.93 | 0.978 | 0.869 | 0.957 | – | – | – | – | – | – | – | – | – | –
